Assay results reported in US20030134859A1 (SANKYO COMPANY, LIMITED, priority 2000, published 2003).
Structures can show the parent of a compound that is named as a salt.

Assays:
[1] = test system: human colon cancer cells COL-2-JCK; test: Inhibition of colony forming activity in human colon cancer cells; type: cell-based; settings: Homo sapiens, 240 h; 1 μM test compound; 10 days; sum of colony areas vs control; read-out: Inhibition Rate (%) against the colony forming activity
In short: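 COL-2-JCK cells seeded at 300 cells/well and grown 10 days at 37 °C, 5% CO2 with compound at 1 μM final (0.1% DMSO). Colonies stained with crystal violet in formalin; inhibition % = (1 − treated/control colony area)×100.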

leptin production = test: Enhancing activity for leptin production in adipocytes (ELISA); type: cell-based, rat; settings: leptin concentration as % of control group; for Facilitating activity to produce leptin: 24 hr
In short: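 Leptin release, quantified by rat leptin ELISA, expressed as percent of 0.1% DMSO control after 24 h at 37 °C. Cells were floating adipocytes isolated by collagenase digestion of epididymal fat from male 6-week Wistar Imamichi rats; compound tested at 1 nM–1 µM final.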

[2] = Rattus norvegicus, Adipocyte, 24 h, 1 μM, read-out: Facilitating activity to produce leptin
[3] = Rattus norvegicus, Adipocyte, 24 h, 100 nm, read-out: Facilitating activity to produce leptin
[4] = Rattus norvegicus, Adipocyte, 24 h, 10 nm, read-out: Facilitating activity to produce leptin

Row | SMILES | activity at 1 µM (leptin production; [2]) | activity at 0.1 µM (leptin production; [3]) | activity at 0.01 µM (leptin production; [4]) | further results
1 | Cc1cnc(NC(=O)c2cc([N+](=O)[O-])ccc2Cl)s1 [Example 4, N-(5-Methylthiazol-2-yl)-(2-chloro-5-nitrophenyl)carboxamide] | – | – | – | inhibition at 1 µM [1]: 62%
2 | O=C(Nc1cccc(-c2ccccc2)c1)c1cc([N+](=O)[O-])ccc1Cl [Example 5, N-(3-Phenylphenyl)-(2-chloro-5-nitrophenyl)carboxamide] | – | – | – | inhibition at 1 µM [1]: 26%
3 | Cc1ccc2nc(-c3ccc(NC(=O)c4cc([N+](=O)[O-])ccc4Cl)cc3)sc2c1 [Example 10, N-[4-(6-Methylbenzothiazol-2-yl)phenyl]-(2-chloro-5-nitrophenyl)carboxamide] | 118% | – | – | –
4 | CCCCCc1ccc(NC(=O)c2cc([N+](=O)[O-])ccc2Cl)cc1 [Example 16, N-(4-Pentylphenyl)-(2-chloro-5-nitrophenyl)carboxamide] | – | – | – | inhibition at 1 µM [1]: 48%
5 | CCOC(=O)c1ccc(NC(=O)c2cc([N+](=O)[O-])ccc2Cl)cc1 [Example 26, N-(4-Ethoxycarbonylphenyl)-(2-chloro-5-nitrophenyl)carboxamide] | – | 115% | – | –
6 | O=C(Nc1cccc(NS(=O)(=O)c2ccccc2)c1)c1cc([N+](=O)[O-])ccc1Cl [Example 30, N-(3-Benzensulfonylaminophenyl)-(2-chloro-5-nitrophenyl)carboxamide] | – | – | – | inhibition at 1 µM [1]: 42%
7 | O=C(Nc1nc(-c2ccccc2)cs1)c1cc([N+](=O)[O-])ccc1Cl [Example 35, N-(4-Phenylthiazol-2-yl)-(2-chloro-5-nitrophenyl)carboxamide] | – | – | – | inhibition at 1 µM [1]: 15%
8 | O=C(Nc1nc(-c2cccnc2)cs1)c1cc([N+](=O)[O-])ccc1Cl [Example 37, N-[4-(3-Pyridyl)thiazol-2-yl)-(2-chloro-5-nitrophenyl)carboxamide] | – | – | – | inhibition at 1 µM [1]: 52%
9 | O=C(Nc1nc(-c2ccccn2)cs1)c1cc([N+](=O)[O-])ccc1Cl [Example 38, N-[4-(2-Pyridyl)thiazol-2-yl)-(2-chloro-5-nitrophenyl)carboxamide] | – | – | – | inhibition at 1 µM [1]: 99.9%
10 | Cc1cccc(-c2csc(NC(=O)c3cc([N+](=O)[O-])ccc3Cl)n2)c1 [Example 40, N-[4-(3-Methylphenyl)thiazol-2-yl)-(2-chloro-5-nitrophenyl)carboxamide] | – | – | – | inhibition at 1 µM [1]: 35%
11 | O=C(Nc1cccnc1)c1cc([N+](=O)[O-])ccc1Cl [Example 50, N-(3-Pyridyl)-(2-chloro-5-nitrophenyl)carboxamide] | 109% | 119% | 124% | activity at 0.001 µM (leptin production; Rattus norvegicus, Adipocyte, 24 h, 1 nm, read-out: Facilitating activity to produce leptin): 118%
12 | O=C(Nc1ccc2c3c(cccc13)CC2)c1cc([N+](=O)[O-])ccc1Cl [Example 54, N-(Acenaphthen-5-yl)-(2-chloro-5-nitrophenyl)carboxamide] | 113% | – | – | –
13 | Cc1cc(Cl)nc(NC(=O)c2cc([N+](=O)[O-])ccc2Cl)n1 [Example 78, N-(4-Chloro-6-methylpyrimidin-2-yl)-(2-chloro-5-nitrophenyl)carboxamide] | 114% | 126% | – | –
14 | Cn1c(NC(=O)c2cc([N+](=O)[O-])ccc2Cl)nc2ccccc21 [Example 82, N-(1-Methylbenzimidazol-2-yl)-(2-chloro-5-nitrophenyl)carboxamide] | 111% | 108% | – | –
15 | O=C(Nc1cccc2nsnc12)c1cc([N+](=O)[O-])ccc1Cl [Example 86, N-(2,1,3-Benzothiazol-4-yl)-(2-chloro-5-nitrophenyl)carboxamide] | – | 110% | – | –
16 | CC(C)(C)OC(=O)Nc1ccc(-c2ccc(NC(=O)c3cc([N+](=O)[O-])ccc3Cl)cc2)cc1 [Example 87, N-[4-[4-(tert-Butoxycarbonylamino)phenyl]phenyl]-(2-chloro-5-nitrophenyl)carboxamide] | 115% | 113% | – | –
17 | CCCCCCN(CCCCCC)c1ccc(NC(=O)c2cc([N+](=O)[O-])ccc2Cl)cc1 [Example 138, N-[4-(N,N-di-n-Hexylamino)phenyl]-(2-chloro-5-nitrophenyl)carboxamide] | 111% | – | – | –

Row | SMILES | activity at 1 µM (leptin production; [2]) | activity at 0.1 µM (leptin production; [3]) | activity at 0.01 µM (leptin production; [4]) | further results
18 | CN(C)c1cccc(NC(=O)c2cc([N+](=O)[O-])ccc2Cl)c1 [Example 176, N-(3-Dimethylamino)phenyl-(2-chloro-5-nitrophenyl)carboxamide] | – | 110% | – | –
19 | O=C(Nc1ccc(S(=O)(=O)Nc2cccnc2)cc1)c1cc([N+](=O)[O-])ccc1Cl [Example 178] | 117% | – | – | –
20 | CCCCCCNc1ccc(-c2ccc(NC(=O)c3cc([N+](=O)[O-])ccc3Cl)cc2)cc1 [Example 195, N-[4-[4-(N-Hexylamino)phenyl]phenyl]-(2-chloro-5-nitrophenyl)carboxamide] | 120% | 123% | 114% | –
21 | CCCCCCCCNc1ccc(-c2ccc(NC(=O)c3cc([N+](=O)[O-])ccc3Cl)cc2)cc1 [Example 219, N-[4-[4-(N-Octylamino)phenyl]phenyl]-(2-chloro-5-nitrophenyl)carboxamide] | 117% | 119% | 113% | –
22 | CCCCCCCCN(CCCCCC)c1ccc(-c2ccc(NC(=O)c3cc([N+](=O)[O-])ccc3Cl)cc2)cc1 [Example 220, N-[4-[4-(N-Hexyl-N-octylamino)phenyl]phenyl]-(2-chloro-5-nitrophenyl)carboxamide mono-hydrochloride] | 111% | – | – | –
23 | CCCCCCCCN(CCCC)c1ccc(-c2ccc(NC(=O)c3cc([N+](=O)[O-])ccc3Cl)cc2)cc1 [Example 222, N-[4-[4-(N-Butyl-N-octylamino)phenyl]phenyl]-(2-chloro-5-nitrophenyl)carboxamide] | 114% | 109% | 110% | –
24 | CCCCCCCCN(CCCC)c1ccc(-c2ccc(NC(=O)c3cc([N+](=O)[O-])ccc3Cl)cc2)cc1.Cl [Example 223, N-[4-[4-(N-Butyl-N-octylamino)phenyl]phenyl]-(2-chloro-5-nitrophenyl)carboxamide mono-hydrochloride] | – | – | – | Facilitating activity to produce leptin (leptin production; 1 μM): 115.9%; Facilitating activity to produce leptin (leptin production; 10 nm): 109.0%; Facilitating activity to produce leptin (leptin production; 100 nm): 115.2%
25 | CCCCCCCCN(CCC)c1ccc(-c2ccc(NC(=O)c3cc([N+](=O)[O-])ccc3Cl)cc2)cc1 [Example 224, N-[4-[4-(N-Octyl-N-propylamino)phenyl]phenyl]-(2-chloro-5-nitrophenyl)carboxamide] | 113% | 112% | 110% | –
26 | CCCCCCCCN(CC)c1ccc(-c2ccc(NC(=O)c3cc([N+](=O)[O-])ccc3Cl)cc2)cc1 [Example 225, N-[4-[4-(N-Ethyl-N-octylamino)phenyl]phenyl]-(2-chloro-5-nitrophenyl)carboxamide] | 117% | 108% | 107% | –
27 | O=C(Nc1ccc(N2CCN(C(=O)c3ccncc3)CC2)cc1)c1cc([N+](=O)[O-])ccc1Cl [Example 228, N-[4-[4-(Pyridin-4-ylcarbonyl)piperazin-1-yl]phenyl]-(2-chloro-5-nitrophenyl)carboxamide] | 112% | 122% | 119% | –
28 | O=C(Nc1ccc(CCO)cc1)c1cc([N+](=O)[O-])ccc1Cl [Example 230, N-[4-(2-Hydroxyethyl)phenyl]-(2-chloro-5-nitrophenyl)carboxamide] | – | – | 110% | –
29 | O=C(Nc1ccc(-n2ccnc2)cc1)c1cccc(NC(=O)c2cc([N+](=O)[O-])ccc2Cl)c1 [Example 231, N-[[3-[4-(Imidazol-1-yl)phenyl]aminocarbonyl]phenyl]-(2-chloro-5-nitrophenyl)carboxamide] | – | 155% | 128% | –
30 | Nc1nc(-c2cccc(NC(=O)c3cc([N+](=O)[O-])ccc3Cl)c2)cs1 [Example 233, N-[3-(2-Amiothiazol-4-yl)phenyl]-(2-chloro-5-nitrophenyl)carboxamide] | – | 121% | 112% | –
31 | CS(=O)(=O)N(c1ccc(-c2ccc(NC(=O)c3cc([N+](=O)[O-])ccc3Cl)cc2)cc1)S(C)(=O)=O [Example 235, N-[4-[4-(N,N-Dimethanesulfonylamino)phenyl]phenyl]-(2-chloro-5-nitrophenyl)carboxamide] | 143% | 121% | 111% | –
32 | O=C(Nc1ccc(-c2ccc(NC(=S)Nc3ccncc3)cc2)cc1)c1cc([N+](=O)[O-])ccc1Cl [Example 258, N-[4-[4-[(Pyridin-4-yl)aminothiocarbonylamino]phenyl]phenyl]-(2-chloro-5-nitrophenyl)carboxamide] | 112% | 114% | 120% | –
33 | O=C(Nc1ccc(NC(=S)Nc2ccncc2)cc1)c1cc([N+](=O)[O-])ccc1Cl [Example 259, N-[4-[(Pyridin-4-yl)aminothiocarbonylamino]phenyl]-(2-chloro-5-nitrophenyl)carboxamide] | – | 110% | 111% | –
34 | NCCc1ccc(NC(=O)c2cc([N+](=O)[O-])ccc2Cl)cc1 [Example 267, N-[4-(2-Aminoethyl)phenyl]-(2-chloro-5-nitrophenyl)carboxamide] | – | 110% | 118% | –
